Reference: patent publication US20220380341A1, “INHIBITORS OF HIV-1 NEF FOR THE TREATMENT OF HIV DISEASE” (priority 2018, published 2022)
Where “and” joins values, the source holds several entries; their conditions need not be identical. Equal values may be shown once. Read-outs that look alike come from different tables or passages of the source.

Tests used:
HIV-1NL4-3 = experiment: HIV-1 infectivity assay in TZM-bl reporter cell line (LTR-luciferase, 48 h); type: cell-based; settings: for inhibition at 1 µM: Human immunodeficiency virus 1, TZM-bl
Summary of the method: (§1)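 Read-out is luciferase from an integrated HIV-1 LTR reporter in TZM-bl cells, 48 h after HIV-1NL4-3 infection in the presence of 1 μM compound. Scale set by DMSO-treated wild-type-infected cells (0%) and Nef-defective virus (100% Nef-dependent effect). Cell Titer Blue measures cytotoxicity without virus.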

TZM-bl cell line = type: cell-based; settings: human, 1 μM
Summary of the method: as §1

HIV-1 NefNL4-3 = HIV-1 NefNL4-3 (Human immunodeficiency virus type 1 group M subtype B, UniProt P03406, A33V/T15A/T51N/V11I); experiment: Surface plasmon resonance binding to recombinant full-length Nef (NL4-3); settings: for RU30/RUNef (extent of binding): response units at 30 μM relative to Nef immobilized on the SPR chip
[1] = 1.0 μM, TZM-bl reporter cell line, Table 4, read-out: % Infectivity Inhibition
[2] = 48 h, Table 1, TZM-bl cells, 1 μM, 48 h, 100% = Nef-defective HIV-1, read-out: HIV-1 Infectivity % Inhibition Norm. to Δ-Nef @ 1 μM
[3] = KD, M, Table 4, SPR fit 2-step induced fit, KD = koff/kon × koff2/(koff2 + kon2)
[4] = Nef NL4-3 Binding, SPR 2-state fitting KD, Table 1, 2-step induced-fit model
[5] = Table 4, 2-step induced fit, T = 1/koff2
[6] = read-out: Nef NL4-3 Binding, SPR 1:1 or 2-site fitting KD2, Table 1, 2-site fit, second component
[7] = KD, M, Table 4, SPR fit 1:1 Langmuir, KD = koff/kon
[8] = Table 4, 1:1 Langmuir fit, T = 1/koff
[9] = Nef NL4-3 Binding, SPR 1:1 or 2-site fitting KD2, Table 1, 2-site fit, second component

Row | SMILES | inhibition at 1 µM (HIV-1NL4-3; [1]) | inhibition at 1 µM (HIV-1NL4-3; [2]) | % Cell Viability (TZM-bl cell line) | Percent Viability @ 1 μM (TZM-bl cells) (TZM-bl cell line) | Kd (HIV-1 NefNL4-3) | Kd (HIV-1 NefNL4-3; [3]) | Kd (HIV-1 NefNL4-3; [4]) | T, minutes (residence time) (HIV-1 NefNL4-3; [5]) | Kd (HIV-1 NefNL4-3; [6]) | RU30/RUNef (extent of binding) (HIV-1 NefNL4-3) | Kd (HIV-1 NefNL4-3; [7]) | T, minutes (residence time) (HIV-1 NefNL4-3; [8]) | Nef NL4-3 Binding, SPR 1:1 or 2-site fitting KD1 (HIV-1 NefNL4-3; Table 1, 1:1 Langmuir fit where the KD2 cell says '1 to 1 fitting', else 2-site fit) | HIV-1 Infectivity % Inhibition Norm. to Δ-Nef @ 1 μM (HIV-1NL4-3; Table 1, TZM-bl cells, 1 μM, 48 h, 100% = Nef-defective HIV-1) | Kd (HIV-1 NefNL4-3; [9])
1 | O=C(OCc1ccccc1)N1CCC(c2nn(-c3nc4cccnc4[nH]3)c(O)c2CCc2ccc(F)cc2)CC1 [Compound I-306, benzyl 4-{4-[2-(4-fluorophenyl)ethyl]-5-hydroxy-1-{3H-imidazo[4,5-b]pyridin-2-yl}-1H-pyrazol-3-yl}piperidine-1-carboxylate] | 0% | -5.2% | 95.7% | 95.7% | 0.0136 µM | 0.731 µM | 0.731 µM | 3.52E + 01 minutes | 5.43 µM | 9.61E- 03 |  |  |  |  | 
2 | Oc1c(CCc2ccc(F)cc2)c(CCCc2ccc(F)cc2)nn1-c1nc2cccnc2[nH]1 [Compound I-307, 4-[2-(4-fluorophenyl)ethyl]-3-[3-(4-fluorophenyl)propyl]-1-{3H-imidazo[4,5-b]pyridin-2-yl}-1H-pyrazol-5-ol] | 47.5% | 47.5% | 98.2% | 98.2% | 0.89 µM |  |  |  |  | 6.84E- 03 | 0.89 µM | 1.14E + 01 minutes |  |  | 
3 | O=C(OCc1ccccc1)N1CCC(c2nn(-c3nc4ccncc4[nH]3)c(O)c2CCc2ccc(F)cc2)CC1 [Compound I-310, benzyl 4-{4-[2-(4-fluorophenyl)ethyl]-5-hydroxy-1-{3H-imidazo[4,5-c]pyridin-2-yl}-1H-pyrazol-3-yl}piperidine-1-carboxylate] | 36.6% | 36.6% | 100% | 105.6% | 0.0502 µM |  |  |  |  | 2.36E- 03 | 0.0502 µM | 3.56E + 02 minutes |  |  | 
4 | CS(=O)(=O)c1cccc(-c2nn(-c3nc4cccnc4[nH]3)c(O)c2CCc2ccc(F)cc2)c1 [Compound I-311, 4-[2-(4-fluorophenyl)ethyl]-1-{3H-imidazo[4,5-b]pyridin-2-yl}-3-(3-methanesulfonylphenyl)-1H-pyrazol-5-ol] |  | 29.8% |  | 94.5% | 1.01 µM |  |  |  |  |  |  |  |  |  | 
5 | Oc1c(CC2CCOCC2)c(C2CCOCC2)nn1-c1nc2cccnc2[nH]1 [Compound I-312, 1-{3H-imidazo[4,5-b]pyridin-2-yl}-3-(oxan-4-yl)-4-[(oxan-4-yl)methyl]-1H-pyrazol-5-ol] |  | -33.7% |  | 100.1% |  |  |  |  |  |  |  |  | No Interaction |  | 
6 | Oc1c(CC2CCOCC2)c(-c2ccc(F)cc2)nn1-c1nc2cccnc2[nH]1 [Compound I-313, 3-(4-fluorophenyl)-1-{3H-imidazo[4,5-b]pyridin-2-yl}-4-[(oxan-4-yl)methyl]-1H-pyrazol-5-ol] | 33.2% | 33.2% | 96.7% | 96.7% | 0.48 µM |  |  |  |  | 5.15E- 03 | 0.48 µM | 2.92E + 01 minutes |  |  | 
7 | Oc1c(CCc2ccc(F)cc2)c(C2CCOCC2)nn1-c1nc2cccnc2[nH]1 [Compound I-314, 4-[2-(4-fluorophenyl)ethyl]-1-{3H-imidazo[4,5-b]pyridin-2-yl}-3-(oxan-4-yl)-1H-pyrazol-5-ol] | 0% | -1% | 100% | 100.1% | 0.705 µM |  |  |  |  | 2.97E- 03 | 0.705 µM | 1.79E + 01 minutes |  |  | 
8 | Oc1c(CC2CCOCC2)c(C2CC2)nn1-c1nc2cccnc2[nH]1 [Compound I-315, 3-cyclopropyl-1-{3H-imidazo[4,5-b]pyridin-2-yl}-4-[(oxan-4-yl)methyl]-1H-pyrazol-5-ol] |  | 28.5% |  | 100.6% | 1.88 µM |  |  |  |  |  |  |  |  |  | 
9 | Oc1c(CC2CCOCC2)c(C2CC(F)(F)C2)nn1-c1nc2cccnc2[nH]1 [Compound I-316, 3-(3,3-difluorocyclobutyl)-1-{3H-imidazo[4,5-b]pyridin-2-yl}-4-[(oxan-4-yl)methyl]-1H-pyrazol-5-ol] | 32.8% |  | 99.7% |  |  |  |  |  |  | 1.19E- 03 | 4.49 µM | 5.19E + 00 minutes |  |  | 
10 | Cn1c(-n2nc(-c3ccc(C(F)(F)F)cc3)c(CCc3ccc(F)cc3)c2O)nc2ccccc21 [Compound I-401, 4-[2-(4-fluorophenyl)ethyl]-1-(1-methyl-1H-1,3-benzodiazol-2-yl)-3-[4-(trifluoromethyl)phenyl]-1H-pyrazol-5-ol] | 99.6% |  | 86.4% |  | 1.89 µM and 0.237 µM | 78.4 µM |  | 1.45E + 03 minutes | 18.1 µM | 2.01E- 02 |  |  |  | 52.3% | 2.47 µM
11 | Cn1c(-n2nc(-c3ccc(S(C)(=O)=O)cc3)c(CCc3ccc(F)cc3)c2O)nc2ccccc21 [Compound I-403, 4-[2-(4-fluorophenyl)ethyl]-3-(4-methanesulfonylphenyl)-1-(1-methyl-1H-1,3-benzodiazol-2-yl)-1H-pyrazol-5-ol] | 4.1% | 4.1% | 99.9% | 99.9% | 2.4 µM |  |  |  |  | 2.88E- 03 | 2.4 µM | 3.63E + 00 minutes |  |  | 
12 | CCOC(=O)c1nn(-c2nc3ccccc3[nH]2)c(O)c1CCc1ccc(F)cc1 [Compound I-404, ethyl 1-(1H-1,3-benzodiazol-2-yl)-4-[2-(4-fluorophenyl)ethyl]-5-hydroxy-1H-pyrazole-3-carboxylate] |  | 1.3% |  | 100.5% | 0.128 µM |  |  |  |  |  |  |  |  |  | 
13 | Cn1c(-n2nc(-c3cccc(S(C)(=O)=O)c3)c(CCc3ccc(F)cc3)c2O)nc2ccccc21 [Compound I-405, 4-[2-(4-fluorophenyl)ethyl]-3-(3-methanesulfonylphenyl)-1-(1-methyl-1H-1,3-benzodiazol-2-yl)-1H-pyrazol-5-ol] | 0% | -9.6% | 95.7% | 95.7% | 4.39 µM |  |  |  |  | 3.25E- 03 | 4.39 µM | 2.32E + 00 minutes |  |  | 
14 | O=C(c1nn(-c2nc3ccccc3[nH]2)c(O)c1CCc1ccc(F)cc1)N1CCCCC1 [Compound I-406, 1-(1H-1,3-benzodiazol-2-yl)-4-[2-(4-fluorophenyl)ethyl]-3-(piperidine-1-carbonyl)-1H-pyrazol-5-ol] | 0% | -4.4% | 100% | 109.7% | 0.549 µM | 2.67 µM | 2.67 µM | 2.85E + 00 minutes |  | 7.13E- 03 |  |  |  |  | 1.23 µM
15 | Oc1c(CCc2ccc(F)cc2)c(C2CCNCC2)nn1-c1nc2ccc(Cl)cc2[nH]1 [Compound I-503, 1-(5-chloro-1H-1,3-benzodiazol-2-yl)-4-[2-(4-fluorophenyl)ethyl]-3-(piperidin-4-yl)-1H-pyrazol-5-ol] | 0% | -94.1% | 90.7% | 90.7% | 0.256 µM | 0.000617 µM | 0.000511 µM | 3.18E + 04 minutes | 3.02 µM | 1.05E- 02 |  |  |  |  | 
16 | Oc1c(CC2CCNCC2)c(-c2ccc(C(F)(F)F)cc2)nn1-c1nc2ccccc2[nH]1 [Compound I-504, 1-(1H-1,3-benzodiazol-2-yl)-4-[(piperidin-4-yl)methyl]-3-[4-(trifluoromethyl)phenyl]-1H-pyrazol-5-ol] |  | -43.7% |  | 101.3% | 10.6 µM |  |  |  |  |  |  |  |  |  | 
17 | CS(=O)(=O)c1ccc(-c2nn(-c3nc4cc(Cl)ccc4[nH]3)c(O)c2CCC2CCNCC2)cc1 [Compound I-550, 1-(5-chloro-1H-1,3-benzodiazol-2-yl)-3-(4-methanesulfonylphenyl)-4-[2-(piperidin-4-yl)ethyl]-1H-pyrazol-5-ol] | 0% | -12.9% | 98.8% | 98.8% | 0.282 µM | 0.00854 µM | 0.00854 µM | 3.33E + 03 minutes | 6.2 µM | 1.75E- 02 |  |  |  |  | 
